Residue numbers refer to the chain shown, from its start.
Columns and labels:
Format in all cases: biochemical
[1] = molecular target: T1, TG2 (transglutaminase-2, transglutaminase type 2) (Homo sapiens, UniProt P21980, K202S/K205S)
T1 sequence (P21980 1-687 K202S/K205S): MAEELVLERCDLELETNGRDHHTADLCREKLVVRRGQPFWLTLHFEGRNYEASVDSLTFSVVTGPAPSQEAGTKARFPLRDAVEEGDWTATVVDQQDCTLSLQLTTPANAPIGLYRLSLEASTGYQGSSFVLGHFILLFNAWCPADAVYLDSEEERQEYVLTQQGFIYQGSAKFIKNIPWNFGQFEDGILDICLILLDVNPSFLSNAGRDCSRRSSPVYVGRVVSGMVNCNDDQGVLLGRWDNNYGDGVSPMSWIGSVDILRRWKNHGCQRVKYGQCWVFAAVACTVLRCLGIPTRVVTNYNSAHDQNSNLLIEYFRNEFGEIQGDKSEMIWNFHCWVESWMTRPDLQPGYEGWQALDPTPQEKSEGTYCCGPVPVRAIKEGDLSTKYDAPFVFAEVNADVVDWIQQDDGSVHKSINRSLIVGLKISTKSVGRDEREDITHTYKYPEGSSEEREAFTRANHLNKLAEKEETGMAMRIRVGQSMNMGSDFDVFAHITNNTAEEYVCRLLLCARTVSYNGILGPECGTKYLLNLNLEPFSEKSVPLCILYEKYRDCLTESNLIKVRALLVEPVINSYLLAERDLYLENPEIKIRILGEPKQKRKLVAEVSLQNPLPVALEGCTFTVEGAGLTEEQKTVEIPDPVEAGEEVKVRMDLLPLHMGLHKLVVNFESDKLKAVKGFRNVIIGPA

[2] = molecular target: T2, TG2 (transglutaminase-2, transglutaminase type 2) (Homo sapiens, UniProt P21980, K634S)
T2 sequence (P21980 1-687 K634S): T1 sequence (P21980 1-687 K202S/K205S) with S202K, S205K, K634S

[3] = molecular target: T3, TG2 (transglutaminase-2, transglutaminase type 2) (Homo sapiens, UniProt P21980, R262S)
T3 sequence (P21980 1-687 R262S): T1 sequence (P21980 1-687 K202S/K205S) with S202K, S205K, R262S

[4] = molecular target: T4, TG2 (transglutaminase-2, transglutaminase type 2) (Homo sapiens, UniProt P21980, K265S)
T4 sequence (P21980 1-687 K265S): T1 sequence (P21980 1-687 K202S/K205S) with S202K, S205K, K265S

Nc1nc2c(ncn2[C@@H]2O[C@H](COP(=O)(O)OP(=O)(O)OP(=O)(O)O)[C@@H](O)[C@H]2O)c(=O)[nH]1 [GTP]
IC50 [1]: 145 ± 23 µM | IC50 [2]: 199 ± 36 µM | IC50 [3]: 23 ± 5 µM | IC50 [4]: 182 ± 17 µM
